Where two headings read alike, the source gives them in different places.
Tested on: TCR 47BE7
Test: IFNγ intracellular cytokine staining of tgTCR 47BE7 CD8^+ T cells stimulated with peptide
Type: cell-based, mouse
Details: for EC50: tgTCR 47BE7 CD8^+ T cells, titrated peptide and αCD28, 6 hours, ICS
Procedure: Fig. 2 | Neoantigen-reactive CD8^+ T cells recognise cognate peptide in vitro and in vivo. a, Table detailing attributes of tumour-reactive T cell receptors (TCRs), including neoantigen-reactive (top) and tumour-associated antigen-reactive (TAA-reactive) (bottom) TCRs isolated upon vaccination. b, Neoantigen-reactive CD8^+ T cell responses were induced by vaccination; isolated tetramer^+ T cells were stimulated for 6 hours with (varying concentrations of) cognate peptide and αCD28 and subsequently analyzed via intracellular staining (ICS) flow cytometry for IFNγ expression. c, Transgenic (tg)TCR CD8^+ T cells were co-incubated with varying concentrations of cognate mutant (MT) peptide or wild type (WT) peptide (x-axis) and αCD28 for 6 hours; intracellular staining (ICS) was performed subsequently. Percentage of T cells expressing IFNγ of a parent CD3^+CD8^+ population is shown on y-axis, normalised to maximum IFNγ expression. MT peptide values are shown as clear circles, and WT as filled, black circles. […] TgTCR CD8^+ T cells expressing the indicated TCR were stimulated, as described in c, with titrated mutant (MT) or wild-type (WT) peptide and IFNγ production was measured by ICS. […] Cytokine production was measured by intracellular staining (ICS) flow cytometry (n=3/condition). […] Heatmap shown summarises the frequency of CD8^+tgTCR^+IFγ^+. f, C57BL/6 mice (n=16–26/group) were treated with Hsf2 neoantigen vaccine or PBS (mock) in accordance with timeline shown (top). tumour growth was monitored via external caliper measurement and plotted versus time since tumour inoculation (bottom). g, Tetramer staining on CD3^+ CD8^+ T cells isolated from tumour-infiltrating lymphocytes (TIL) or peripheral blood mononuclear cells (PBMCs) from mice vaccinated with each of the neoantigens listed, using same methodology as described in b. h, Schematic describing administration of ACT in vivo. […]
Fig. 4 | Structure of the pMHC-TCR ternary complex. a, Kinetics of TCR-47BE7 binding to immobilised H2-D^b/Hsf2 p.K72N as determined by biolayer interferometry. […]

SMILES	EC50 (n=3, read-out: functional avidity, half-maximal IFNγ production (EC50)) [µM]	cytokine production on a per-cell basis at saturating peptide concentrations (MT versus WT peptide)	EC50 (95%CI NR, read-out: half-maximal IFNγ production (EC50)) [µM]
CC[C@H](C)[C@H](NC(=O)[C@H](Cc1c[nH]cn1)NC(=O)[C@@H](NC(=O)[C@@H](NC(=O)[C@H](CC(N)=O)NC(=O)[C@H](CCCNC(=N)N)NC(=O)[C@H](Cc1ccccc1)NC(=O)CNC(=O)[C@@H](N)Cc1ccc(O)cc1)C(C)C)C(C)C)C(=O)O [Hsf2 p.K72N68–76]	5.61e-06	–	–
CC[C@H](C)[C@H](NC(=O)[C@H](Cc1c[nH]cn1)NC(=O)[C@@H](NC(=O)[C@@H](NC(=O)[C@H](CCCCN)NC(=O)[C@H](CCCNC(=N)N)NC(=O)[C@H](Cc1ccccc1)NC(=O)CNC(=O)[C@@H](N)Cc1ccc(O)cc1)C(C)C)C(C)C)C(=O)O [Hsf2_68–76]	–	partial agonist only	8.7
